Assay results taken from PubChem BioAssay AID977621 (Broad Institute, 2014).
Results filed as inconclusive are left out. Calls of active or inactive are those of the source.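 How the source made its calls: active means Wild-type ribosome reporter drop at least double the humanized mutant ribosome reporter drop, growth loss under a set limit; inconclusive means no clear call, values can overlap the other calls; inactive means the rest.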

Test system: E. coli wild-type GFP strain growth, fluorescence, 24 h
Assay: growth inhibition of wild-type GFP E. coli, dose response, H69 mutant RFP, cherry-pick (AID 977621);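 further: wild-type GFP and H69 mutant RFP strains grown together 50/50 in each well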
[1] = E. coli mixed culture, 24 h, measured here: total growth OD600, test 2

| SMILES | AC50 | AC50 [1] [µM] |
| --- | --- | --- |
| O=C(CCCOc1ccccc1)NCCc1nc2ccccc2[nH]1 | > 100 µM (inactive) | – |
| Cc1nn(CC(=O)OCCOc2ccc(Br)cc2)c(C)c1[N+](=O)[O-] | – | > 100 |
| COc1cc(OC)cc(C(=O)Nc2ccc(S(=O)(=O)Nc3cnc4ccccc4n3)cc2)c1 | – | 33 |
| O=C(Nc1ccc(Cl)cn1)c1ccc([N+](=O)[O-])o1 | – | > 100 |
| O=C(COn1nnc2ccc(C(F)(F)F)cc21)Nc1c(Cl)cccc1Cl | > 100 µM (inactive) | – |
| O=C(CC(=O)c1cccs1)c1ccncc1 | > 100 µM (inactive) | – |
| COc1ccccc1C1CCN(Cc2cccc([N+](=O)[O-])c2)CC1 | > 100 µM (inactive) | > 100 |
| O=C(c1ccco1)N(CCCN1CCOCC1)c1nc(-c2ccc(F)cc2)cs1 | > 100 µM (inactive) | – |
| CN(c1ccc(C(=O)NCc2cccs2)cc1)S(=O)(=O)c1ccccc1 | – | < 0.6 |
| CCC(C(=O)Nc1ccsc1C(=O)OC)c1ccccc1 (stereo not drawn) | – | 49.2 |
| O=C(Nc1ccc(Cl)cn1)c1cc2c(s1)-c1ccccc1OC2 | – | > 100 |
| COc1cccc(NC(=O)CN(C)CC(=O)Nc2ccc(Br)cc2)c1 | > 100 µM (inactive) | – |
| CCOC(=O)c1c(CS(=O)(=O)c2ccccc2)n(C)c2cc(Br)c(O)cc12 | > 100 µM (inactive) | > 100 |
| Cc1ccc(C(=O)C2CCN(CC(=O)Nc3nc(C)cs3)CC2)cc1 | > 100 µM (inactive) | 7.66 |
| CCN(CC)S(=O)(=O)c1ccc(O)c(C(=O)OCC(=O)NC23CC4CC(CC(C4)C2)C3)c1 | > 100 µM (inactive) | > 100 |
| CC(C)(C)c1ccc(CCC2OCC(CN3CCOCC3)O2)cc1 (stereo not drawn) | > 100 µM (inactive) | – |
| CCc1cc2ccc(OC)cc2nc1SCC(=O)N1CCN(C(=O)c2ccco2)CC1 | – | 42.2 |
| CC(=O)Nc1ccc(OCC(=O)N2CCC(Cc3ccccc3)CC2)cc1 | – | > 100 |
| CCOC(=O)c1c(NC(=O)CN2CCC(C)CC2)sc(C)c1C | – | 48.5 |
| CC1(C(=O)Nc2ccc3c(c2)OCCO3)CSCC(=O)N1CCOc1ccccc1 (stereo not drawn) | > 100 µM (inactive) | > 100 |
| Cc1ccccc1OCC(O)Cn1c(NCc2ccco2)nc2c1c(=O)n(C)c(=O)n2C (stereo not drawn) | > 100 µM (inactive) | > 100 |
| COc1cccc(-c2ccc([C@@H]3[C@H](CO)N4CCCCN(S(=O)(=O)c5cccs5)C[C@@H]34)cc2)c1 | > 100 µM (inactive) | 33.5 |
| COC(=O)c1ccc(CN2CCCC(CO)(Cc3ccccc3F)C2)cc1 (stereo not drawn) | > 100 µM (inactive) | – |
| COc1cccc(OC)c1CNC(=O)CCSCc1ccccc1F | – | > 100 |

| SMILES | AC50 | AC50 [1] [µM] |
| --- | --- | --- |
| C=CCN(c1ccccc1)S(=O)(=O)c1cccc2cccnc12 | – | > 100 |
| COC(=O)C(Cc1csc2ccc(Cl)cc12)NC(=O)c1ccc(Cl)cc1 (stereo not drawn) | > 100 µM (inactive) | 18.4 |
| CC(=O)c1ccc(OCC(=O)Nc2ccc3c(c2)CCC3)cc1 | – | > 100 |
| O=C1c2ccccc2S(=O)(=O)c2cc(N3CCC(C(=O)N4CCCCC4)CC3)ccc21 | > 100 µM (inactive) | – |
| O=C(c1cnc(Cc2c[nH]c3ccccc23)c(I)c1)N1CCCCC1 | – | 29.6 |
| CCN(CC(=O)Nc1ccccc1OC)CC(=O)Nc1c(Cl)ccc(C)c1Cl | > 100 µM (inactive) | – |
| COc1ccc(NC(=O)c2oc3ccccc3c2NC(=O)C2CCCO2)cc1OC (stereo not drawn) | > 100 µM (inactive) | – |
| CC(=O)NCCOc1nc(N2CCCCC2)nc(N2CCCCC2)n1 | – | > 100 |
| Nc1nc(SCc2ccccc2)c2ncn(Cc3ccccc3)c2n1 | > 100 µM (inactive) | 41.2 |
| COc1ccccc1C1CCN(C(=O)c2ccco2)CC1 | – | > 100 |
| CCc1ccc(CN2CCCC(CNS(=O)(=O)c3ccc(OC)cc3)C2)cc1 (stereo not drawn) | – | > 100 |
| Clc1ccc(-c2nc(NCCCN3CCOCC3)c3ccccc3n2)cc1 | > 100 µM (inactive) | – |
| COc1ccc(Cc2nnc(Nc3ccc(C)cc3)o2)cc1OC | > 100 µM (inactive) | – |
| Cc1onc(-c2ccccc2Cl)c1C(=O)N[C@@H](C)c1ccccc1 | > 100 µM (inactive) | > 100 |
| CCN(C(=O)COC(=O)CCc1ccccc1)c1ccccc1 | > 100 µM (inactive) | > 100 |
| Cc1noc(C)c1NC(=O)Nc1ccc2c(c1)C(=O)N([C@H](C)CO)C[C@H](C)[C@H](CN(C)C(=O)Nc1ccc3c(c1)OCO3)OCCCC[C@@H](C)O2 | – | > 100 |
| O=C(C[C@H]1CC[C@@H]2[C@H](COC[C@@H](O)CN2C(=O)Nc2cc(Cl)cc(Cl)c2)O1)N1CCOCC1 | > 100 µM (inactive) | – |
| CCc1ccc(NC(=O)COC(=O)CCCC2=NS(=O)(=O)c3ccccc3N2)cc1 | > 100 µM (inactive) | – |
| CC1CCCC(NC(=O)COC(=O)Cc2c[nH]c3ccccc23)C1C (stereo not drawn) | – | > 100 |
| CCCCc1cc2c(cc1NC(=O)CN1CCCCC1)OCCO2 | > 100 µM (inactive) | > 100 |
| CCN(CC)CCN(C(=O)C1CCCCC1)c1nc2cc3c(cc2s1)OCO3 | > 100 µM (inactive) | – |
| CN(Cc1ccc(Cl)s1)C(=O)CNC(=O)CNC(=O)c1ccc(Cl)cc1Cl | > 100 µM (inactive) | – |
| CN1C(=O)c2cc(NC(=O)c3cccc(F)c3)ccc2OC[C@H]2O[C@@H](CC(=O)N3CCc4ccccc4C3)CC[C@@H]21 | > 100 µM (inactive) | – |
| Cc1ccsc1C(=O)N1CCCC(C(=O)c2cc(F)ccc2F)C1 (stereo not drawn) | > 100 µM (inactive) | > 100 |

| SMILES | AC50 | AC50 [1] [µM] |
| --- | --- | --- |
| c1ccc(Cc2nc3ccccc3s2)cc1 | > 100 µM (inactive) | > 100 |
| CCOC(=O)c1ccc(CC(=O)c2oc3cc(O)ccc3c2C)o1 | > 100 µM (inactive) | – |
| Cc1c(C(=O)NCCSCc2cccc(C(F)(F)F)c2)cnn1-c1ccc(F)cc1 | > 100 µM (inactive) | 17.4 |
| COC(=O)c1sc(-c2ccc(C(C)(C)C)cc2)cc1NC(=O)c1ccccc1C(=O)O | – | > 100 |
| Nc1ccccc1Sc1c[nH]c2ccccc12 | – | > 100 |
| O=C(CN1CCC(n2nnc3cc(F)ccc32)CC1)N1CCc2ccccc2C1 | > 100 µM (inactive) | – |
| CCCN(CC(=O)Nc1ccccc1C)C(=O)c1cccc(S(=O)(=O)N2CCc3ccccc3C2)c1 | > 100 µM (inactive) | 40.8 |
| Fc1cccc(Cc2noc(CN3CCCCC3CCc3ccccn3)n2)c1 (stereo not drawn) | > 100 µM (inactive) | > 100 |
| COc1ccc(-c2cc(C(=O)Nc3ccc(C(N)=O)cc3)c3ccccc3n2)cc1OC | – | > 100 |
| Nc1ccc(C(=O)Nc2ccc3nc(-c4ccncc4)[nH]c3c2)cc1 | > 100 µM (inactive) | – |
| CC1CCN(c2ccc3nnc(CCC(=O)Nc4cccc(F)c4)n3n2)CC1 | > 100 µM (inactive) | > 100 |
| CCc1cc(C(=O)N2CCCC(C(=O)c3cccc4ccccc34)C2)n(C)n1 (stereo not drawn) | – | > 100 |
| CCN(C(=O)COC(=O)c1cn(-c2ccccc2)nc1-c1ccccc1)C1CCS(=O)(=O)C1 (stereo not drawn) | – | > 100 |
| COc1ccccc1-c1cc2nc(NCCc3ccncc3)ccn2n1 | > 100 µM (inactive) | – |
| COC(=O)CNC(=O)COC(=O)c1ccc(Cl)nc1 | – | > 100 |
| CN(c1ccccc1)S(=O)(=O)c1cccc(C(=O)OCC(=O)NCc2ccco2)c1 | > 100 µM (inactive) | – |
| COc1ccc(CNC(=O)Cc2cn(C)c3ccccc23)c(OC)c1 | – | > 100 |
| O=C(CSc1nc2ccccc2[nH]1)Nc1cccc(S(=O)(=O)N2CCOCC2)c1 | > 100 µM (inactive) | 33.9 |
| Nc1ccccc1C#CC(=O)c1ccccc1 | > 100 µM (inactive) | – |
| COc1ccc(OC)c(S(=O)(=O)Nc2cccc3ccccc23)c1 | > 100 µM (inactive) | – |
| CCC(=O)N(CCC(c1ccco1)C(C)C)Cc1ccccc1 (stereo not drawn) | > 100 µM (inactive) | – |
| CCCn1c(NCc2ccc3c(c2)OCO3)nc2ccccc21 | > 100 µM (inactive) | 49.9 |
| O=C(Nc1cccc(Cl)c1)N1C[C@H]2[C@@H](c3ccccc31)[C@@H](CO)N2C(=O)c1ccncc1 | > 100 µM (inactive) | – |
| COc1ccc(OCCC(=O)OCC(=O)NCCC2=CCCCC2)cc1 | – | > 100 |

| SMILES | AC50 | AC50 [1] [µM] |
| --- | --- | --- |
| Cc1ccc(-c2cc[n+](Cc3ccccc3)cc2)cc1 | – | > 100 |
| O=C(c1ccc2c(c1)CCN2S(=O)(=O)c1ccccc1)N1CCN(c2ccccc2)CC1 | > 100 µM (inactive) | > 100 |
| O=C(NCCCN1CCOCC1)c1sc2cc([N+](=O)[O-])ccc2c1Cl | > 100 µM (inactive) | – |
| O=C(Nc1ccn(Cc2ccc(Cl)cc2)n1)c1ccccc1 | – | > 100 |
| O=C(O)c1ccc(S(=O)(=O)N(Cc2ccc(F)cc2)C2CCCCC2)cc1 | > 100 µM (inactive) | 30.2 |
| Cc1cc(OCCCCOc2ccc(S(N)(=O)=O)c(C)c2)ccc1S(N)(=O)=O | > 100 µM (inactive) | 49.4 |
| CS(=O)(=O)c1cccc(C(=O)Nc2cccc(-c3nc4ccccc4[nH]3)c2)c1 | > 100 µM (inactive) | – |
| O=C1c2ccccc2C(c2nnnn2Cc2ccccc2)N1Cc1cccc(F)c1 (stereo not drawn) | – | > 100 |
| CCCCNc1ccc2c(c1)OC[C@@H](Cc1ccccc1)NS2(=O)=O | > 100 µM (inactive) | 32.4 |
| COc1cccc(NC2=Nc3cccc4cccc2c34)c1 | – | > 100 |
| CC(OC(=O)CCc1c[nH]c2ccccc12)C(=O)c1ccccc1 (stereo not drawn) | > 100 µM (inactive) | 46.5 |
| C[C@@H]1CN([C@@H](C)CO)C(=O)CCCn2nncc2CO[C@H]1CN(C)C(=O)Nc1cccc(C(F)(F)F)c1 | > 100 µM (inactive) | – |
| CCCCc1ccc(S(=O)(=O)Nc2ccc(C)c(NS(C)(=O)=O)c2)cc1 | – | 49.5 |
| CC1Cc2ccccc2N1C(=O)CN1C(=O)NC(C)(CCc2ccccc2)C1=O (stereo not drawn) | – | > 100 |
| CCCn1c(C(C)Nc2nc(-c3ccc(C)cc3)cs2)nc2ccccc21 (stereo not drawn) | – | > 100 |
| COc1cc(OC)c(NS(=O)(=O)c2cccc(C(=O)OCC(=O)NCC3CCCO3)c2)cc1Cl (stereo not drawn) | – | > 100 |
| O=C(CN1C(=O)c2ccccc2C1=O)Nc1cccc(S(=O)(=O)Nc2ccccc2Cl)c1 | > 100 µM (inactive) | – |
| CCc1ccc2nc(SCC(=O)Nc3ccccc3N3CCOCC3)c(C#N)cc2c1 | – | > 100 |
| COCC(C)NC(=O)c1nn(Cc2ccccc2)c(=O)c2ccccc12 (stereo not drawn) | – | 28.2 |
| COc1ccc(NC(=O)CCS(=O)(=O)c2ccccc2Cl)cc1S(=O)(=O)Nc1ccc(Cl)cc1 | – | > 100 |
| COc1ccc(CNS(=O)(=O)c2ccc3c(c2)NC(=O)C(C)S3)cc1 (stereo not drawn) | > 100 µM (inactive) | – |
